Source: patent US8076356B2, “Triazolopyridinylsulfanyl derivatives as P38 map kinase inhibitors” (Pfizer Inc., priority 2004, dated 2011)

Test system: TNFα release from human peripheral blood mononuclear cells
Test: TNFα screen
Assay type: cell-based
Settings: LPS-stimulated human peripheral blood mononuclear cells, 18 hours incubation, TNFα in supernatant by ELISA; read-out: TNF IC50
Procedure: Venous blood is collected from healthy volunteers and the mononuclear cells purified by centrifugation through Histopaque (Ficoll) cushions. TNFα production from these cells is stimulated by addition of lipopolysaccharide. After 18 hours incubation in the presence of LPS, the cell supernatant is removed and the concentration of TNFα in the supernatant determined by ELISA.

| IC50 [nM] | Structure (SMILES) |
| --- | --- |
| 0.7 | CC(C)(C)c1cc(NC(=O)NCc2ccccc2Sc2ccc3nnc(-c4ccccc4O)n3c2)n(-c2cccc(C#N)c2)n1 [Example 51] |
| 0.7 | CC(C)(C)c1cc(NC(=O)NCc2ccccc2Sc2ccc3nnc(-c4ccccc4Cl)n3c2)n(-c2cccc(O)c2)n1 [Example 54] |
| 0.9 | CC(C)(C)c1cc(NC(=O)NCc2ccccc2Sc2ccc3nnc(-c4ccccc4O)n3c2)n(-c2cccc(O)c2)n1 [Example 55] |
| 1.2 | Cc1cc(O)cc(-n2nc(C(C)(C)C)cc2NC(=O)NCc2ccccc2Sc2ccc3nnc(C(C)C)n3c2)c1 [Example 57] |
| 1.6 | Cc1cccc(-n2nc(C(C)(C)C)cc2NC(=O)NCc2ccccc2Sc2ccc3nnc(-c4cc(Cl)ccc4O)n3c2)c1 [Example 58] |
| 1.3 | CSCC(C)(C)c1cc(NC(=O)NCc2ccccc2Sc2ccc3nnc(-c4ccccc4O)n3c2)n(-c2cccc(OCCO)c2)n1 [Example 59] |
| 1.4 | CSCC(C)(C)c1cc(NC(=O)NCc2ccccc2Sc2ccc3nnc(-c4ccccc4O)n3c2)n(-c2ccccc2)n1 [Example 60] |
| 1.4 | CSCC(C)(C)c1cc(NC(=O)NCc2ccccc2Sc2ccc3nnc(-c4ccccc4O)n3c2)n(-c2cccc(F)c2)n1 [Example 63] |
| 0.9 | CSCC(C)(C)c1cc(NC(=O)NCc2ccccc2Sc2ccc3nnc(-c4ccccc4O)n3c2)n(-c2ccc(F)c(F)c2)n1 [Example 64] |
| 0.9 | CC(C)c1nnc2ccc(Sc3ccccc3CNC(=O)Nc3cc(C(C)(C)C)nn3-c3ccc(O)c(Cl)c3)cn12 [Example 73] |
| 4 | CCc1cc(-n2nc(C(C)(C)C)cc2NC(=O)NCc2ccccc2Sc2ccc3nnc(C(C)C)n3c2)ccc1O [Example 74] |
| 0.8 | CC(C)c1nnc2ccc(Sc3ccccc3CNC(=O)Nc3cc(C(C)(C)C)nn3-c3ccc(Cl)c(O)c3)cn12 [Example 76] |
| 2.7 | CC(C)(C)c1cc(NC(=O)NCc2ccccc2Sc2ccc3nnc(-c4ccc(O)cc4Cl)n3c2)n(-c2ccc(F)c(F)c2)n1 [Example 77] |
| 0.8 | CC(C)(C)c1cc(NC(=O)NCc2ccccc2Sc2ccc3nnc(-c4cc(O)ccc4Cl)n3c2)n(-c2ccc(F)c(F)c2)n1 [Example 78] |

Same assay, conditions: PBMC; LPS-stimulated human peripheral blood mononuclear cells, 18 hours incubation, TNFα in supernatant by ELISA; read-out: TNF IC50

| IC50 [nM] | Structure (SMILES) |
| --- | --- |
| 1.6 | CSC(C)(C)c1cc(NC(=O)NCc2ccccc2Sc2ccc3nnc(C(C)C)n3c2)n(-c2cccc(O)c2)n1 [Example 26, N-{1-(3-Hydroxyphenyl)-3-[1-methyl-1-(methylthio)ethyl]-1H-pyrazol-5-yl}-N′-{2-[(3-isopropyl[1,2,4]triazolo[4,3-a]pyridin-6-yl)thio]benzyl}urea] |
| 2 | COc1ccc(-n2nc(C(C)(C)C)cc2NC(=O)NCc2ccccc2Sc2ccc3nnc(C(C)C)n3c2)cc1Cl [Example 33, N-[3-tert-Butyl-1-(3-chloro-4-methoxyphenyl)-1H-pyrazol-5-yl]-N′-{2-[(3-isopropyl[1,2,4]triazolo[4,3-a]pyridin-6-yl)thio]-benzyl}urea] |
| 1.3 | CC(C)c1nnc2ccc(Sc3ccccc3CNC(=O)Nc3cc(C(C)(C)C)nn3-c3cccnc3)cn12 [Example 34, N-(3-tert-Butyl-1-pyridin-3-yl-1H-pyrazol-5-yl)-N′-{2-[(3-isopropyl[1,2,4]triazolo[4,3-a]pyridin-6-yl)thio]benzyl}-urea] |
| 4.8 | Cc1ccc(-n2nc(C(C)(C)C)cc2NC(=O)NCc2ccccc2Sc2ccc3nnc(-c4cccc(O)c4Cl)n3c2)cc1 [Example 36, N-[3-tert-Butyl-1-(4-methylphenyl)-1H-pyrazol-5-yl]-N′-(2-{[3-(2-chloro-3-hydroxyphenyl)[1,2,4]triazolo[4,3-a]pyridin-6-yl]thio}benzyl)urea] |
| 2.8 | CSC(C)(C)c1cc(NC(=O)NCc2ccccc2Sc2ccc3nnc(C(C)C)n3c2)n(-c2cccc(OCCO)c2)n1 [Example 37] |
| 1.1 | CC(C)c1ccccc1-c1nnc2ccc(Sc3ccccc3CNC(=O)Nc3cc(C(C)(C)C)nn3-c3cccc(OCCO)c3)cn12 [Example 44, N-{3-tert-Butyl-1-[3-(2-hydroxyethoxy)phenyl]-1H-pyrazol-5-yl}-N′-(2-{[3-(2-isopropylphenyl)[1,2,4]triazolo[4,3-a]pyridin-6-yl]thio}benzyl)urea] |
| 1.4 | COc1ccccc1-c1nnc2ccc(Sc3ccccc3CNC(=O)Nc3cc(C(C)(C)C)nn3-c3cccc(OCCO)c3)cn12 [Example 45, N-{3-tert-Butyl-1-[3-(2-hydroxyethoxy)phenyl]-1H-pyrazol-5-yl}-N′-(2-{[3-(2-methoxyphenyl)[1,2,4]triazolo[4,3-a]pyridin-6-yl]thio}benzyl)urea] |
| 0.8 | CC(C)(C)c1cc(NC(=O)NCc2ccccc2Sc2ccc3nnc(-c4ccccc4O)n3c2)n(-c2ccc(F)cc2)n1 [Example 46, N-[3-tert-Butyl-1-(4-fluorophenyl)-1H-pyrazol-5-yl]-N′-(2-{[3-(2-hydroxyphenyl)[1,2,4]triazolo[4,3-a]pyridin-6-yl]thio}benzyl)urea] |
| 0.9 | CC(C)(C)c1cc(NC(=O)NCc2ccccc2Sc2ccc3nnc(-c4ccccc4O)n3c2)n(-c2cccnc2)n1 [Example 70, N-(3-tert-Butyl-1-pyridin-3-yl-1H-pyrazol-5-yl)-N′-(2-{[3-(2-hydroxyphenyl)[1,2,4]triazolo[4,3-a]pyridin-6-yl]thio}benzyl)urea] |
| 3 | CC(C)(C)c1cc(NC(=O)NCc2ccccc2Sc2ccc3nnc(-c4ccccc4O)n3c2)n(-c2ccccn2)n1 [Example 71, N-(3-tert-Butyl-1-pyridin-2-yl-1H-pyrazol-5-yl)-N′-(2-{[3-(2-hydroxyphenyl)[1,2,4]triazolo[4,3-a]pyridin-6-yl]thio}benzyl)urea] |
| 1.1 | CC(C)(C)c1cc(NC(=O)NCc2ccccc2Sc2ccc3nnc(-c4ccccc4O)n3c2)n(-c2cccc(OCCO)c2)n1 [Example 80, N-{3-tert-Butyl-1-[3-(2-hydroxyethoxy)phenyl]-1H-pyrazol-5-yl}-N′-(2-{[3-(2-hydroxyphenyl)[1,2,4]triazolo[4,3-a]pyridin-6-yl]thio}benzyl)urea] |
| 0.8 | CSC(C)(C)c1cc(NC(=O)NCc2ccccc2Sc2ccc3nnc(-c4cc(Cl)ccc4O)n3c2)n(-c2cccc(C)c2)n1 [Example 86, N-(2-{[3-(5-Chloro-2-hydroxyphenyl)[1,2,4]triazolo[4,3-a]pyridin-6-yl]thio}benzyl)-N′-[3-[1-methyl-1-(methylthio)ethyl]-1-(3-methylphenyl)-1H-pyrazol-5-yl]urea] |
| 0.6 | CSC(C)(C)c1cc(NC(=O)NCc2ccccc2Sc2ccc3nnc(-c4cc(Cl)ccc4O)n3c2)n(-c2ccc(C)cc2)n1 [Example 87, N-(2-{[3-(5-Chloro-2-hydroxyphenyl)[1,2,4]triazolo[4,3-a]pyridin-6-yl]thio}benzyl)-N′-[3-[1-methyl-1-(methylthio)ethyl]-1-(4-methylphenyl)-1H-pyrazol-5-yl]urea] |
| 1.1 | CSc1ccccc1-c1nnc2ccc(Sc3ccccc3CNC(=O)Nc3cc(C(C)(C)C)nn3-c3cccc(O)c3)cn12 [Example 93, N-[3-tert-Butyl-1-(3-hydroxyphenyl)-1H-pyrazol-5-yl]-N′-[2-({3-[2-(methylthio)phenyl][1,2,4]triazolo[4,3-a]pyridin-6-yl}thio)benzyl]urea] |
| 0.9 | CSC(C)(C)c1cc(NC(=O)NCc2ccccc2Sc2ccc3nnc(-c4ccccc4O)n3c2)n(-c2ccc(F)cc2)n1 [Example 94, N-{1-(4-Fluorophenyl)-3-[1-methyl-1-(methylthio)ethyl]-1H-pyrazol-5-yl}-N′-(2-{[3-(2-hydroxyphenyl)[1,2,4]triazolo[4,3-a]pyridin-6-yl]thio}benzyl)urea] |
| 0.6 | CSC(C)(C)c1cc(NC(=O)NCc2ccccc2Sc2ccc3nnc(-c4ccccc4O)n3c2)n(-c2ccc(F)c(F)c2)n1 [Example 95, N-{1-(3,4-Difluorophenyl)-3-[1-methyl-1-(methylthio)ethyl]-1H-pyrazol-5-yl}-N′-(2-{[3-(2-hydroxyphenyl)[1,2,4]triazolo[4,3-a]pyridin-6-yl]thio}benzyl)urea] |
| 0.6 | COc1ccc(-n2nc(C(C)(C)C)cc2NC(=O)NCc2ccccc2Sc2ccc3nnc(-c4ccccc4O)n3c2)cc1 [Example 97, N-[3-tert-Butyl-1-(4-methoxyphenyl)-1H-pyrazol-5-yl]-N′-(2-{[3-(2-hydroxyphenyl)[1,2,4]triazolo[4,3-a]pyridin-6-yl]thio}benzyl)urea] |
| 0.4 | COc1cccc(-n2nc(C(C)(C)C)cc2NC(=O)NCc2ccccc2Sc2ccc3nnc(-c4ccccc4O)n3c2)c1 [Example 98, N-[3-tert-Butyl-1-(3-methoxyphenyl)-1H-pyrazol-5-yl]-N′-(2-{[3-(2-hydroxyphenyl)[1,2,4]triazolo[4,3-a]pyridin-6-yl]thio}benzyl)urea] |
| 1.1 | CCC(C)(C)c1cc(NC(=O)NCc2ccccc2Sc2ccc3nnc(-c4ccccc4O)n3c2)n(-c2cccc(OCCO)c2)n1 [Example 100] |
| 1.7 | CCc1ccccc1-c1nnc2ccc(Sc3ccccc3CNC(=O)Nc3cc(C(C)(C)SC)nn3-c3cccc(OCCO)c3)cn12 [Example 102, N-(2-{[3-(2-Ethylphenyl)[1,2,4]triazolo[4,3-a]pyridin-6-yl]thio}benzyl)-N′-{1-[3-(2-hydroxyethoxy)phenyl]-3-[1-methyl-1-(methylthio)ethyl]-1H-pyrazol-5-yl}urea] |
| 1 | CCc1ccccc1-c1nnc2ccc(Sc3ccccc3CNC(=O)Nc3cc(C(C)(C)C)nn3-c3cccc(OCCO)c3)cn12 [Example 104, N-{3-tert-Butyl-1-[3-(2-hydroxyethoxy)phenyl]-1H-pyrazol-5-yl}-N′-(2-{[3-(2-ethylphenyl)[1,2,4]triazolo[4,3-a]pyridin-6-yl]thio}benzyl)urea] |
| 0.6 | Cc1ccccc1-c1nnc2ccc(Sc3ccccc3CNC(=O)Nc3cc(C(C)(C)C)nn3-c3cccc(OCCO)c3)cn12 [Example 105, N-{3-tert-Butyl-1-[3-(2-hydroxyethoxy)phenyl]-1H-pyrazol-5-yl}-N′-(2-{[3-(2-methylphenyl)[1,2,4]triazolo[4,3-a]pyridin-6-yl]thio}benzyl)urea] |
